From patent EP4471048A1, “PEPTIDE INHIBITORS OF INTERLEUKIN-23 RECEPTOR” (Zealand Pharma A/S, priority 2023, dated 2024)
*1 amine or outer side, *2 acyl side, *3 side chain or, on linkers, in order; H or OH if unused. Where a SMILES comes first, the peptide text is derived from it. Bridges are numbered along the chain shown (N, C = ends). [ ]: non-standard residue; d: D form. X23 = O=C(CCCCCc1cccnc1)N[C@@H](CCN[*:2])C(=O)[*:1]; X8 = O=C(CC[C@@H](N[*:2])C(=O)[*:3])[*:1]; Phe(4-Me) = Cc1ccc(C[C@H](N)C(=O)O)cc1; 2Nal = N[C@@H](Cc1ccc2ccccc2c1)C(=O)O; AEF = NCCOc1ccc(C[C@H](N)C(=O)O)cc1; 3Pal = N[C@@H](Cc1cccnc1)C(=O)O; β3hE = N[C@@H](CCC(=O)O)CC(=O)O; αMeL = CC(C)C[C@](C)(N)C(=O)O; dDab = NCC[C@@H](N)C(=O)O; Dab = NCC[C@H](N)C(=O)O

Biological target: T1, human IL-23R (Homo sapiens, UniProt Q5VWK5)
T1 sequence (Q5VWK5 22-629): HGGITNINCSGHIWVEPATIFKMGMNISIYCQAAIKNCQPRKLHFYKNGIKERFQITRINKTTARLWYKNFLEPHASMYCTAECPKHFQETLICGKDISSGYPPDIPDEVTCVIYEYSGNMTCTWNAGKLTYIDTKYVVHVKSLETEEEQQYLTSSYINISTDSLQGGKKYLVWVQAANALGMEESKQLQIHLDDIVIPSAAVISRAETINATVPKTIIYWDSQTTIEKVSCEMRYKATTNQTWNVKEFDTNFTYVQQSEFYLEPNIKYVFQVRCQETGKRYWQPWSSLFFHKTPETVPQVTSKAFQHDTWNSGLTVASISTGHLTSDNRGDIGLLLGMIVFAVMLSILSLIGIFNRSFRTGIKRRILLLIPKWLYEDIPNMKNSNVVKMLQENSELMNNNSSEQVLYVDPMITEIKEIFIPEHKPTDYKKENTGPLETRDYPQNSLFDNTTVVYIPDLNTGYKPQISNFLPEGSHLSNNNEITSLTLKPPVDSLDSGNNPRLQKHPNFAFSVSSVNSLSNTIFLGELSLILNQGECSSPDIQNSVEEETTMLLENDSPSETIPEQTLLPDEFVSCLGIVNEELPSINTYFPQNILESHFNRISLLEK
Assay: biochemical
Settings: for Emax: read-out: % displacement (hIL-23R NIuc)
Procedure, shortened: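 BRET displacement of a TAMRA-labelled reference compound from N-terminal Nanoluc-IL-23R fusion protein in membranes from stably transfected HEK293 cells. Incubation 2 h at room temperature, then Nanoluc substrate was added and the TAMRA/Nanoluc ratio read. IC50 and maximal displacement came from 4-parameter logistic fits.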

Structure (SMILES) | IC50 | Emax | % displacement (hIL-23R NIuc)
COc1ccc(C[C@@H]2NC(=O)[C@@H]3CCC(=O)N[C@@H](CCCCNC(=O)CC[C@@H](C(=O)N[C@@H](CCCCNC(=O)c4ccncc4)C(N)=O)NC(=O)[C@](C)(CC(C)C)NC(=O)[C@H](Cc4ccc5ccccc5c4)NC2=O)C(=O)N[C@@H]([C@@H](C)O)C(=O)N[C@@H](C(C)C)C(=O)N[C@@H](Cc2c[nH]c4ccccc24)C(=O)N[C@@H](CCC(N)=O)C(=O)N3)cc1 [Compound 53, K(1c)(6c)^†TVWQE(6c)[Y(Me)][2-Nal][2-Me-Leu]E(1c)[K(isonicotinyl)]-[NH2]] | 420 nM | 95% | 
CC(C)C[C@]1(C)NC(=O)[C@H](Cc2ccc3ccccc3c2)NC(=O)[C@H](Cc2ccc(OCCN)cc2)NC(=O)[C@@H]2CC(=O)N[C@H](CCNC(=O)CC[C@@H](C(=O)N[C@@H](CCN)C(=O)N[C@@H](Cc3cccnc3)C(N)=O)NC1=O)C(=O)N[C@@H]([C@@H](C)O)C(=O)N[C@@H](C(C)C)C(=O)N[C@@H](Cc1c[nH]c3ccccc13)C(=O)N[C@@H](CCC(N)=O)C(=O)N2 [Compound 11, [{d}Dab](1c)(6c)^†TVWQD(6c)[Y(2-aminoethoxy)][2-Nal][2-Me-Leu]E(1c)[Dab][3-(3-Pyridyl)-Ala]-[NH2]] ([dDab]TVWQD[AEF][2Nal][αMeL]E[Dab][3Pal]-NH2; lactam 1-10, N-6) | 0.37 nM | 104% | 
COc1ccc(C[C@@H]2NC(=O)[C@@H]3CCC(=O)N[C@@H](CCCCNC(=O)CC[C@@H](C(=O)N[C@@H](CCCCNC(=O)CCc4ccncc4)C(N)=O)NC(=O)[C@](C)(CC(C)C)NC(=O)[C@H](Cc4ccc5ccccc5c4)NC2=O)C(=O)N[C@@H]([C@@H](C)O)C(=O)N[C@@H](C(C)C)C(=O)N[C@@H](Cc2c[nH]c4ccccc24)C(=O)N[C@@H](CCC(N)=O)C(=O)N3)cc1 [Compound 55, K(1c)(6c)^†TVWQE(6c)[Y(Me)][2-Nal][2-Me-Leu]E(1c)[K(4-pyridylpropionyl)]-[NH2]] | 140 nM | 100% | 
CC[C@H](C)[C@@H]1NC(=O)[C@@H]2CCCCNC(=O)CC[C@@H](C(=O)NCCc3cccnc3)NC(=O)[C@](C)(C(C)C)NC(=O)[C@H](Cc3ccc4ccccc4c3)NC(=O)[C@H](Cc3ccc(OCCN)cc3)NC(=O)[C@@H](CCC(=O)N2)NC(=O)[C@H](CCC(N)=O)NC(=O)[C@H](Cc2c[nH]c3ccccc23)NC(=O)[C@H](C(C)C)NC1=O [Compound 27, K(1c)(6c)^†VWQ[{d}E](6c)[Y(2-aminoethoxy)][2-Nal][2-Me-Val]E(1c)-[NH-2-(pyridin-3-yl)ethyl]] | 110 nM |  | 102%
CNC(=O)[C@H](Cc1cccnc1)NC(=O)[C@H](CCN)NC(=O)[C@@H]1CCNC(=O)[C@H]2CCC(=O)N[C@@H](Cc3c[nH]c4ccccc34)C(=O)N[C@@H](CCC(N)=O)C(=O)N[C@@H](CCC(=O)N2)C(=O)N[C@@H](Cc2ccc(OCCN)cc2)C(=O)N[C@@H](Cc2ccc3ccccc3c2)C(=O)N[C@@](C)(CC(C)C)C(=O)N1 [Compound 109, [{d}iso-Glu](1c)^‡(6c)^†WQE(6c)[Y(2-aminoethoxy)][2-Nal][2-Me-Leu][Dab](1c)[Dab][3-(3-Pyridyl)-Ala]-[NHMe]] (WQE[AEF][2Nal][αMeL][Dab][Dab][3Pal]-NHMe; linker N-3-7 via X8) | 26 nM | 96% | 
CC(C)C[C@]1(C)NC(=O)[C@H](Cc2ccc3ccccc3c2)NC(=O)[C@H](Cc2ccc(OCCN)cc2)NC(=O)[C@@H]2CCC(=O)N[C@@H](CCCCNC(=O)CC[C@@H](C(=O)NCCCCc3cccnc3)NC1=O)C(=O)N[C@@H](CO)C(=O)N[C@@H](C(C)C)C(=O)N[C@@H](Cc1c[nH]c3ccccc13)C(=O)N[C@@H](CCC(N)=O)C(=O)N2 [Compound 30, K(1c)(6c)^†SVWQE(6c)[Y(2-aminoethoxy)][2-Nal][2-Me-Leu]E(1c)-[NH-4-(pyridin-3-yl)butanyl]] | 20 nM |  | 101%
CC[C@H](C)[C@@H]1NC(=O)[C@@H]2CCCCNC(=O)CC[C@@H](CC(=O)N[C@@H](Cc3cccnc3)C(=O)NC)NC(=O)[C@](C)(CC(C)C)NC(=O)[C@H](Cc3ccc4ccccc4c3)NC(=O)[C@H](Cc3ccc(OCCN)cc3)NC(=O)[C@H](CCC(=O)N2)NC(=O)[C@H](CCC(N)=O)NC(=O)[C@H](Cc2c[nH]c3ccccc23)NC(=O)[C@H](C(C)C)NC1=O [Compound 61, K(1c)(6c)^†IVWQE(6c)[Y(2-aminoethoxy)][2-Nal][2-Me-Leu][beta-hGlu](cyclo1)[3-(3-Pyridyl)-Ala]-[NHMe]] (KIVWQE[AEF][2Nal][αMeL][β3hE][3Pal]-NHMe; lactam 1-10, N-6) | 11 nM | 99% | 
Cc1ccc(C[C@@H]2NC(=O)[C@@H]3CCC(=O)N[C@@H](CCCCNC(=O)[C@@H](NC(=O)CCCCCc4cccnc4)CCNC(=O)[C@](C)(CC(C)C)NC(=O)[C@H](Cc4ccc5ccccc5c4)NC2=O)C(=O)N[C@@H]([C@@H](C)O)C(=O)N[C@@H](C(C)C)C(=O)N[C@@H](Cc2c[nH]c4ccccc24)C(=O)N[C@@H](CCC(N)=O)C(=O)N3)cc1 [Compound 25, K(1c)(6c)^†TVWQE(6c)[Y(2-aminoethoxy)][2-Nal][2-Me-Leu][iso-Dab](1c)^‡-[6-(3-pyridyl)hexanoyl]] (KTVWQE[Phe(4-Me)][2Nal][αMeL]; linker 1-C via X23; lactam N-6) |  | 91% | 
CC[C@H](C)[C@@H]1NC(=O)[C@@H]2CCCCNC(=O)CC[C@@H](C(=O)NCC(=O)N[C@H](Cc3cccnc3)C(N)=O)NC(=O)[C@](C)(C(C)C)NC(=O)[C@H](CC3CC3)NC(=O)[C@H](Cc3ccc(C)cc3)NC(=O)[C@H](CCC(=O)N2)NC(=O)[C@H](CCC(N)=O)NC(=O)[C@H](Cc2c[nH]c3ccccc23)NC(=O)[C@H](C(C)C)NC1=O [Compound 23, K(1c)(6c)^†IVWQE(6c)[F(4-Me)][Cyclopropyl-Ala][2-Me-Val]E(1c)G[{d}3-(3-Pyridyl)-Ala]-[NH2]] | 89 nM |  | 111%
CC[C@H](C)[C@@H]1NC(=O)[C@@H]2CCCCNC(=O)CC[C@@H](C(=O)N3CCC[C@H]3C(=O)N[C@@H](Cc3cccnc3)C(=O)NC)NC(=O)[C@](C)(CC(C)C)NC(=O)[C@H](Cc3ccc4ccccc4c3)NC(=O)[C@H](Cc3ccc(OCCN)cc3)NC(=O)[C@H](CCC(=O)N2)NC(=O)[C@H](CCC(N)=O)NC(=O)[C@H](Cc2c[nH]c3ccccc23)NC(=O)[C@H](C(C)C)NC1=O [Compound 63, K(1c)(6c)^†IVWQE(6c)[Y(2-aminoethoxy)][2-Nal][2-Me-Leu]E(1c)P[3-(3-Pyridyl)-Ala]-[NHMe]] (KIVWQE[AEF][2Nal][αMeL]EP[3Pal]-NHMe; lactam 1-10, N-6) | 150 nM |  | 98%
CC[C@H](C)[C@@H]1NC(=O)[C@@H]2CCCCNC(=O)CC[C@@H](C(=O)NCC(=O)N[C@H](Cc3cccnc3)C(N)=O)NC(=O)[C@](C)(C(C)C)NC(=O)[C@H](Cc3ccc4ccccc4c3)NC(=O)[C@@H](Cc3ccccc3)NC(=O)[C@H](CCC(=O)N2)NC(=O)[C@H](CCC(N)=O)NC(=O)[C@H](Cc2c[nH]c3ccccc23)NC(=O)[C@H](C(C)C)NC1=O [Compound 22, K(1c)(6c)^†IVWQE(6c)[{d}F][2-Nal][2-Me-Val]E(1c)G[{d}3-(3-Pyridyl)-Ala]-[NH2]] | 980 nM | 86% | 
CC(C)[C@@H]1NC(=O)[C@H]([C@@H](C)O)NC(=O)[C@@H]2CCCCNC(=O)CC[C@@H]3NC(=O)[C@H](CCNC(=O)[C@H](Cc4cccnc4)NC(=O)[C@H](CCN)NC3=O)NC(=O)[C@H](Cc3ccc4ccccc4c3)NC(=O)[C@H](Cc3ccc(OCCN)cc3)NC(=O)[C@H](CCC(=O)N2)NC(=O)[C@H](CCC(N)=O)NC(=O)[C@H](Cc2c[nH]c3ccccc23)NC1=O [Compound 76, K(1c)(6c)^†TVWQE(6c)[Y(2-aminoethoxy)][2-Nal][Dab](7c)E(1c)[Dab][3-(3-Pyridyl)-Ala](7c)^‡] (KTVWQE[AEF][2Nal][Dab]E[Dab][3Pal]; lactam 1-10, 9-C, N-6) | 3.7 nM | 92% | 
